# Several values for one entry are separate records, joined by “and”; a condition that tells them apart may be missing. Identical values can stand only once. Like-named read-outs stand apart in the source and are kept apart here.
# Columns and labels:
# [1] = PBPK input; ref amodiaquine, DEAQ Winstanley et al., 1987 9; atovaquone Rolan et al., 1997 14; azithromycin Lalak et al., 1993 23; carboxyprimaquine Mihaly et al., 1985 26; chloroquine Walker et al., 1987 29; DHA EMA Website, 44; doxycycline Raghuram et al., 1982 48, Nguyen et al., 1989 49; mefloquine Schwartz et al., 1982 57; primaquine White, 1985 62; proguanil Jeppesen et al., 1997 34; pyrimeth; cited from earlier work
# [2] = PBPK input; ref Charman et al., 2020 1; cited from earlier work
# OCT1 = test system: OCT1; design: method as in Ito et al., 2010 68, Panfen et al., 2019 69; details: average; ref Ito et al., 2010 68, Panfen et al., 2019 69; cited from earlier work
# [3] = Hepatic / HLM intrinsic clearance, enzyme not defined; details: human, liver microsomes
# [4] = ref Charman et al., 2020 1; cited from earlier work
# OCT2 = details: read-out: OCT2 Ki; ref Kusuhara et al., 2011 70; cited from earlier work
# Caco-2 cells = details: calibrated against propranolol; plasma as medium for atovaquone and piperaquine; ref Charman et al., 2020 1; cited from earlier work
# MATEs = target: MATEs; design: method as in Miyake et al., 2021 71; details: average of MATE1 and MATE2-K; ref Miyake et al., 2021 71; cited from earlier work
# [5] = cited from earlier work
# [6] = In vitro flags for victim and perpetrator properties conferring DDI liability; format: in vitro ADME, human; details: in vitro flag, mainly based on in vitro determinations
# CYP2C19 = CYP2C19 (Homo sapiens, UniProt P33261); experiment: Metabolism by CYP2C19 (CLint, fm); format: in vitro ADME; details: for fmCYP2C19: fraction metabolised used in the PBPK model (proguanil: total, all routes)
# Sequence of CYP2C19 (P33261 whole entry): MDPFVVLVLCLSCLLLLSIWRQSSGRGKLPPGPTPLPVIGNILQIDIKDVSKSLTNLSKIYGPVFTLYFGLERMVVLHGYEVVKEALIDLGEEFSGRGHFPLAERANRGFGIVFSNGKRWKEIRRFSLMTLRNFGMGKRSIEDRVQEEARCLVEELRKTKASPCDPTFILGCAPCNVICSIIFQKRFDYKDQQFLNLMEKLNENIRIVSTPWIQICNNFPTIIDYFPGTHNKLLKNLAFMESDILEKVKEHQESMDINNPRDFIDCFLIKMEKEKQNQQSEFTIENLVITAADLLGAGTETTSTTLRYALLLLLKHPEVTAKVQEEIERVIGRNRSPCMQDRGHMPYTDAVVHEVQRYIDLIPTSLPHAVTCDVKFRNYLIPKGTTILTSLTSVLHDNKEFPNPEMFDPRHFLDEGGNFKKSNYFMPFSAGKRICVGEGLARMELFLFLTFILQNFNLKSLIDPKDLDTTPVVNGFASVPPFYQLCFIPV
# Text: (§1) In nearly all cases the fraction of systemic elimination metabolised by a given enzyme (fm) determined in vitro was unavailable in the literature.
# [7] = PBPK input; ref Charman et al., 2020 1; cited from earlier work; remark: listed apart in the source
# CYP2C9 = experiment: Metabolism by CYP2C9 (CLint, fm); format: in vitro ADME, human
# Text: as §1
# CYP3A4 [8] = target: T1, CYP3A4 (Homo sapiens, UniProt P08684); details: cited from earlier work
# T1 sequence (P08684 whole entry): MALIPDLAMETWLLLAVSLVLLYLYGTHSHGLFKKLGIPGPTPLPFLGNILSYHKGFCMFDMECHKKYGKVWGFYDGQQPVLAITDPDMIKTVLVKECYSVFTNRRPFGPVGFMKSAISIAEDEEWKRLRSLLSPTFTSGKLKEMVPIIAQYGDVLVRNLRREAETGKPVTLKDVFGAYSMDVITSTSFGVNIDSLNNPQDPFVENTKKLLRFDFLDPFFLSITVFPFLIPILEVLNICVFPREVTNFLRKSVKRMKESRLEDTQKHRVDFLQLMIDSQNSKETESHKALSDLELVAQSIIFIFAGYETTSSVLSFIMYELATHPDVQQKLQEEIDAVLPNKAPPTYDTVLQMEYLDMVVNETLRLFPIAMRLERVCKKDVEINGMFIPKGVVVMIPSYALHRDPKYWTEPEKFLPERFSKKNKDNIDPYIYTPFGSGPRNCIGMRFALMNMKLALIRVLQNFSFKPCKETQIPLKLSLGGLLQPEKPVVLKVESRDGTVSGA
# [9] = measured (0.4 mg/mL protein where stated); ref Charman et al., 2020 1; cited from earlier work
# CYP3A4 [10] = target: T1, CYP3A4; experiment: in vitro
# CYP3A4 [11] = target: T1, CYP3A4
# Text: as §1
# [12] = piperaquine 960 mg SD + clarithromycin 500 mg SD; ref Eurartesim - EMA Website, 12; cited from earlier work
# [13] = PBPK absorption inputs (fa, ka, tlag, Qgut, Fg); design: species or system human; details: for fa: derived from ascending dose studies, McCarthy et al., 2017
# Text: Initial models were built based on available physicochemical and in vitro data to give a ‘bottom-up’ prediction. Areas of uncertainty were highlighted, and the potential impact of uncertainty associated with such parameters was investigated using sensitivity analysis. Available clinical PK data were then used to evaluate and, if required, refine the initial ‘bottom-up’ model. Care was taken to split data into training and test sets wherever possible. The model verification strategy differed across compounds based on availability of different types of clinical data. […] Clinical studies used for drug model development and verification are reported in Table S2 (PK) and Table S3 (DDIs).
# [14] = Blood to plasma ratio (B:P); details: PBPK input; unpublished (in-house) data
# CYP3A4 [15] = target: T1, CYP3A4; experiment: CYP3A4 inhibition (direct and time-dependent); details: Derived from IC50 shift data (single time point), unpublished data
# in vitro = details: human, plasma
# CYP2C8 [16] = target: T2, CYP2C8 (Homo sapiens, UniProt P10632)
# T2 sequence (P10632 1-490): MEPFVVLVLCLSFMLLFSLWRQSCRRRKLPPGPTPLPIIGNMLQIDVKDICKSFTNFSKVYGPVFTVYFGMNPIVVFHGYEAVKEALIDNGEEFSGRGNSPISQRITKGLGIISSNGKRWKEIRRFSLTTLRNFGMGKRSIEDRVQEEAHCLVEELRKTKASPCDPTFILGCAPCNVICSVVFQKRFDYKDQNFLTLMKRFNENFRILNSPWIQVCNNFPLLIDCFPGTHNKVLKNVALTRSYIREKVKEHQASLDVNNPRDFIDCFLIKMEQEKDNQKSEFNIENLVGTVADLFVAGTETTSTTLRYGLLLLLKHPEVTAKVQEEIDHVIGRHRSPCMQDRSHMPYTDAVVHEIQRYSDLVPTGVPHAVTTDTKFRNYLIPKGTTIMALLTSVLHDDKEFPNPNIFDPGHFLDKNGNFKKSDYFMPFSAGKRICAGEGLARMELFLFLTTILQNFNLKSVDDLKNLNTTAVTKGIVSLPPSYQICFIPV
# CYP2C8 [17] = target: T2, CYP2C8; experiment: Metabolism by CYP2C8 (CLint, fm)
# Text: as §1
# [18] = Fraction unbound in plasma (fu), main binding protein; details: PBPK input; unpublished (in-house) data
# CYP2C8 [19] = target: T2, CYP2C8; experiment: biochemical
# [20] = Fraction unbound in human liver microsomes (fumic); details: method of Austin et al., 2002
# [21] = HLM CLint 31.6 µL/min/mg with 20% split equally between CYP2C9 and CYP2C19
# [22] = fraction metabolised used in the PBPK model
# [23] = Relative fa (in vivo fasted AUC / high fat fed AUC), EMA Website
smiles,measurement,setting,value
"CCc1nc(N)nc(N)c1-c1ccc(Cl)cc1 [Pyrimethamine, pyrimethamine]",CL renal,[1],0.0989 L/h
same,fu,[2],0.095
same,Ki,OCT1,2.3 µM
same,microsomal CLint,[3],1.8 µL/min/mg
same,pKa(s),[4],6.86
same,Ki,OCT2,10 µM
same,Caco-2 (Papp A-B),Caco-2 cells,59.8 10-6 cm/s
same,Ki,MATEs,0.124 µM
same,Cmax Obs,"[5]; in vivo, 100 mg",771 ng/mL
same,Risk as a perpetrator,[6],OCT2 and MATE inhibitor
"Clc1ccc2c(N3CCN(CCCN4CCN(c5ccnc6cc(Cl)ccc56)CC4)CC3)ccnc2c1 [Piperaquine, piperaquine]",CLint CYP2C19,CYP2C19; [21],3.16 µL/min/pmol
same,fmCYP2C19,CYP2C19,10%
same,Log P,[7],5.27
same,CLint CYP2C9,CYP2C9; [21],3.16 µL/min/pmol
same,fmCYP2C9,CYP2C9; [22],10%
same,Ki,CYP3A4 [8],3 µM
same,fumic,[9],0.013
same,microsomal CLint,[3],31.6 µL/min/mg
same,kinact,CYP3A4 [10],0.000347 s⁻¹
same,fmCYP3A4,CYP3A4 [11],80%
same,CLint CYP3A4,CYP3A4 [11]; microsomes,25.3 µL/min/pmol
same,AUC ratio Obs,[12],≤ 2 fold
same,Cmax ratio Obs,[12],≤ 2 fold
same,fa - 960 mg fasted,[13]; [23],0.4
same,fa - 1280 mg fasted,[13]; [23],0.33
same,fa - 960 mg fed,"[13]; Relative fa, EMA Website",1
same,fa - 1280 mg fed,"[13]; Relative fa, EMA Website",1
same,Caco-2 (Papp A-B),Caco-2 cells,233 10-6 cm/s
same,B:P,[14],0.9
same,AUC Obs,"[5]; 960 mg QD (fasted, Day 3), 0-72 h, ref Eurartesim S06, Females <75 kg",5.38 µg·h/mL
same,AUC Obs,"[5]; 960 mg QD (fasted, Day 3), 0-72 h, ref Eurartesim S06, Males <75 kg",3.93 µg·h/mL
same,Cmax Obs,"[5]; 960 mg QD (fasted, Day 3), ref Eurartesim S06, Females <75 kg",505 ng/mL
same,Cmax Obs,"[5]; 960 mg QD (fasted, Day 3), ref Eurartesim S06, Males <75 kg",280 ng/mL
same,AUC Obs,"[5]; 960 mg QD (fed, Day 3), 0-72 h, ref Eurartesim S06, Females <75 kg",12.5 µg·h/mL
same,AUC Obs,"[5]; 960 mg QD (fed, Day 3), 0-72 h, ref Eurartesim S06, Males <75 kg",10.7 µg·h/mL
same,Cmax Obs,"[5]; 960 mg QD (fed, Day 3), ref Eurartesim S06, Females <75 kg",1270 ng/mL
same,Cmax Obs,"[5]; 960 mg QD (fed, Day 3), ref Eurartesim S06, Males <75 kg",1120 ng/mL
same,AUC Obs,"[5]; 1280 mg QD (fasted), 0-72 h, ref Eurartesim S06, Males ≥75 kg",3.93 µg·h/mL
same,Cmax Obs,"[5]; 1280 mg QD (fasted), ref Eurartesim S06, Males ≥75 kg",280 ng/mL
same,AUC Obs,"[5]; 1280 mg QD (fed), 0-72 h, ref Eurartesim S06, Males ≥75 kg EMA Website, 33",10.7 µg·h/mL
same,Cmax Obs,"[5]; 1280 mg QD (fed), ref Eurartesim S06, Males ≥75 kg EMA Website, 33",1120 ng/mL
same,AUC Obs,"[5]; 1280 mg SD tetraphosphate salt, 0-72 h, ref EMA Website, 33",3.01 µg·h/mL
same,Cmax Obs,"[5]; 1280 mg SD tetraphosphate salt, ref EMA Website, 33",190 ng/mL
same,CYP3A4 KI,CYP3A4 [15],0.12 µM
same,fraction unbound,in vitro,0.006
same,Risk as a perpetrator,[6],CYP3A4 time‐dependent inhibitor
same,Risk as a victim,[6],"Substrate of CYP3A4, CYP2C9 and CYP2C19"
CC(F)(F)c1nc2nc(CO)cc(Nc3ccc(S(F)(F)(F)(F)F)cc3)n2n1 [DSM450],AUC Obs,"[5]; in vivo, 400 mg",271 µg·h/mL
same,Cmax Obs,"[5]; in vivo, 400 mg",1070 ng/mL
same,AUC Obs,"[5]; in vivo, 600 mg",477 µg·h/mL
same,Cmax Obs,"[5]; in vivo, 600 mg",1380 ng/mL
same,AUC Obs,"[5]; in vivo, 800 mg",454 µg·h/mL
same,Cmax Obs,"[5]; in vivo, 800 mg",1920 ng/mL
same,AUC Obs,"[5]; in vivo, 1200 mg",1170 µg·h/mL
same,Cmax Obs,"[5]; in vivo, 1200 mg",3070 ng/mL
same,Ki,CYP2C8 [16],4.46 µM
Cc1cc(Nc2ccc(S(F)(F)(F)(F)F)cc2)n2nc(C(C)(F)F)nc2n1 [DSM265],CLint CYP2C8,CYP2C8 [17]; Unpublished MMV in house data,2.384 µL/min/pmol
same,fmCYP2C8,CYP2C8 [17]; [22],70% and ~ 70%
same,fu,[18],0.001
same,CLint CYP2C19,CYP2C19; Unpublished MMV in house data,1.751 µL/min/pmol
same,fmCYP2C19,CYP2C19,30% and ~ 30%
same,Log P,[7],4.03
same,Ki,CYP2C8 [19],3.1 µM and 1.18 µM
same,fumic,[20]; extrapolated from value measured at 0.4 mg/mL to 0.1 mg/mL,0.61
same,fumic,"[20]; for CYP2C8 Ki, extrapolated from 0.4mg/mL to 0.2 mg/mL",0.44
same,fa,[13]; doses 400 mg and above,0.7
same,fa,[13]; doses 25 - 250 mg,1
same,Caco-2 (Papp A-B),Caco-2 cells,61 10-6 cm/s
same,B:P,[14],0.70
same,AUC Obs,"[5]; DSM265 400 mg SD, 0-inf, ref McCarthy et al., 2017 46",1210 µg·h/mL
same,Cmax Obs,"[5]; DSM265 400 mg SD, ref McCarthy et al., 2017 46",11500 ng/mL
same,AUC Obs,"[5]; DSM265 600 mg SD, 0-inf, ref McCarthy et al., 2017 46",2140 µg·h/mL
same,Cmax Obs,"[5]; DSM265 600 mg SD, ref McCarthy et al., 2017 46",15500 ng/mL
same,AUC Obs,"[5]; DSM265 800 mg SD, 0-inf, ref McCarthy et al., 2017 46",2220 µg·h/mL
same,Cmax Obs,"[5]; DSM265 800 mg SD, ref McCarthy et al., 2017 46",19100 ng/mL
same,AUC Obs,"[5]; DSM265 1200 mg SD, 0-inf, ref McCarthy et al., 2017 46",4720 µg·h/mL
same,Cmax Obs,"[5]; DSM265 1200 mg SD, ref McCarthy et al., 2017 46",34800 ng/mL

# — publication PMC10508484, “Development and application of a PBPK modeling strategy to support antimalarial drug development” (CPT: Pharmacometrics & Systems Pharmacology, 2023)
